Values after ≈ are worked out from the molar mass of the structure shown. Each block holds one compound with its values, some of them ahead of it.
How the values were obtained:
ACA acylase [1] = assay: Substrate specificity, test 3: peptides and N-acyl phenylalanines, amino acids detected with amino acid analyzer; format: biochemical, Brevibacterium spec.; conditions: for Activity / Relative Activity: 50 mM substrate, pH 7.5, 30° C.; for Activity: 0.1 U/ml ACA acylase; for Relative Activity: relative to α-acetylamino cinnamic acid = 100%
Description: Other substrates used were N-acetyl-L-phenylalanine, N-methoxycarbonyl-D,L-phenylalanine and various peptides. The test batch contained in these instances:
0.1 M potassium phosphate buffer (pH 7.5)
(§1) The batches (1 ml altogether) were agitated (30° C.) and samples were taken at different times. The amino acids produced by the acylase action were quantitatively detected with the aid of an amino acid analyzer. The activity of the enzymes is also indicated in this instance in international units-an activity of 1 U corresponds to the formation of 1 μmole amino acid per minute. The activities measured with the 3 test batches are listed in column 2 of Table 6 in mU/ml. For the determination of the relative activity (column 3 of Table 6), the activity of the α-acetylamino cinnamic acid as substrate was set equal to 100%.

ACA acylase [2] = assay: Influences of inhibitors and activators on ACA acylase activity (standard conditions, coupled test with D-2-hydroxy-4-methylpentanoic acid dehydrogenase); format: biochemical, Brevibacterium spec.
Description: 0.1 M phosphate buffer for pH 7.5
(§2) limiting amounts of ACA acylase.
(Deviation: The tests with bivalent metal ions were performed in 0.1M tris/HCl buffer for pH 8.0.)

ACA acylase [3] = assay: Substrate specificity, test 2: α-acetylamino acrylic acid, photometric test coupled with L-alanine dehydrogenase; format: biochemical, Brevibacterium spec.
Description: 2. Test with α-acetylamino acrylic acid:
50 mM α-acetyl amino acrylic acid
1 U/ml L--alanine dehydrogenase
The activity was measured in an analogous manner (by a photometric test at 340 nm) (1 μmole NADH decrease would correspond to 1 μmole formation of alanine).
as §1

[4] = at 25° C.; cited from earlier work
ACA acylase [5] = assay: Dependency of ACA acylase activity on substrate concentration, coupled with L-phenylalanine dehydrogenase (pH 8.5); format: biochemical, Brevibacterium spec.
Description: 0.7 mM ammonium chloride/ammonia buffer (pH 8.5)
0.5 U L--phenylalanine dehydrogenase
as §2
The α-acetylamino cinnamic acid concentration was varied within a range of 1-36 mM. […] The KM value for α-acetylamino cinnamic acid is 3.9 mM.

ACA acylase [6] = assay: Dependency of ACA acylase activity on substrate concentration, coupled with D-2-hydroxy-4-methylpentanoic acid dehydrogenase (pH 7.5); format: biochemical, Brevibacterium spec.
Description: 0.1 M phosphate buffer (pH 7.5)
0.8 U D--2-hydroxy-4-methylpentanoic acid dehydrogenase
as §2
The α-acetylamino cinnamic acid concentration was varied within a range of 0.1-18 mM. […] The KM value for α-acetylamino cinnamic acid is at 0.45 mM.

ACA acylase [7] = assay: Substrate specificity, test 1: α-acetylamino cinnamic acid, photometric test coupled with L-phenylalanine dehydrogenase; format: biochemical, Brevibacterium spec.
Description: In a series of parallel batches, the substrate α-acetylamino cinnamic acid was replaced by other compounds and tested to see to what extent the enzyme accepts other substrates. The following test batches were used depending on the substrate used:
1. Test with α-acetylamino cinnamic acid as substrate:
50 mM α-acetylamino cinnamic acid
The activity was measured (at 340 nm) by a photometric test as described in Example 1.
as §1

[8] = bivalent metal ion, concentration 1 nM (so in the source), 0.1M tris/HCl buffer pH 8.0
[9] = bivalent metal ion, concentration 10 nM (so in the source), 0.1M tris/HCl buffer pH 8.0
[10] = reagent concentration 1 nM (so in the source), 0.1 M phosphate buffer pH 7.5, 30° C.
[11] = reagent concentration 10 nM (so in the source), 0.1 M phosphate buffer pH 7.5, 30° C.

Compound: L--leu-L--phe
Activity (ACA acylase [1]): 102 mU.ml^-1
Relative Activity (ACA acylase [1]): 82%

Compound: [Cl][Hg][Cl] [HgCl2]
Residual Activity (ACA acylase [2]; [8]): 51%
Residual Activity (ACA acylase [2]; [9]): 0%

Residual Activity (ACA acylase [2]; [10]): 102%
Residual Activity (ACA acylase [2]; [11]): 81%
Compound: N[C@@H](CCC(=O)N[C@@H](CS)C(=O)NCC(=O)O)C(=O)O [red. glutathione]

Compound: L--ala-L--phe
Activity (ACA acylase [1]): 105 mU.ml^-1
Relative Activity (ACA acylase [1]): 84%

Compound: L--leu-L--trp
Activity (ACA acylase [1]): 67 mU.ml^-1
Relative Activity (ACA acylase [1]): 54%

Residual Activity (ACA acylase [2]; [10]): 100%
Residual Activity (ACA acylase [2]; [11]): 100%
Compound: OCCS [2-mercaptoethanol]

Compound: [Cl-].[Cl-].[Mg+2] [MgCl2]
Residual Activity (ACA acylase [2]; [8]): 100%
Residual Activity (ACA acylase [2]; [9]): 100%

Compound: L--asp-L--phe
Activity (ACA acylase [1]): 38 mU.ml^-1
Relative Activity (ACA acylase [1]): 30%

Compound: [Cl][Ni][Cl] [NiCl2]
Residual Activity (ACA acylase [2]; [8]): 83%
Residual Activity (ACA acylase [2]; [9]): 53%

Compound: L--leu-L--tyr
Activity (ACA acylase [1]): 109 mU.ml^-1
Relative Activity (ACA acylase [1]): 87%

Compound: c1ccc(-c2ccccn2)nc1 [2,2-dipyridyl]
Residual Activity (ACA acylase [2]; [10]): 97%
Residual Activity (ACA acylase [2]; [11]): 69%

Compound: [Cl][Hg].[Cl][Hg] [Hg2 Cl2]
Influence on the enzyme (in words) (ACA acylase [2]; summary of properties): inhibiting action

Compound: L--ser-L--phe
Activity (ACA acylase [1]): 36 mU.ml^-1
Relative Activity (ACA acylase [1]): 29%

Activity (ACA acylase [1]): 0 mU.ml^-1
Relative Activity (ACA acylase [1]): 0%
Substrate specificity: hydrolysis by the enzyme (in words) (ACA acylase [1]; summary of properties): not
Compound: CC(=O)N[C@@H](Cc1ccccc1)C(=O)O [N--acetyl-L--phenylalanine, N-acetyl-L-phenylalanine]

Compound: [Cl][Mn][Cl] [MnCl2]
Residual Activity (ACA acylase [2]; [8]): 63%

Compound: [Cl][Cd][Cl] [CdCl2]
Residual Activity (ACA acylase [2]; [8]): 72%
Residual Activity (ACA acylase [2]; [9]): 29%
Influence on the enzyme (in words) (ACA acylase [2]; summary of properties): inhibiting action

Activity (ACA acylase [1]): 0 mU.ml^-1
Relative Activity (ACA acylase [1]): 0%
Compound: COC(=O)NC(Cc1ccccc1)C(=O)O (racemic) [N--methoxycarbonyl D,L--phenylalanine, N-methoxycarbonyl-D,L-phenylalanine]

Compound: gly-D-phe
Activity (ACA acylase [1]): 0 mU.ml^-1
Relative Activity (ACA acylase [1]): 0%

Residual Activity (ACA acylase [2]; [10]): 72%
Residual Activity (ACA acylase [2]; [11]): 45%
Influence on the enzyme (in words) (ACA acylase [2]; summary of properties): inhibiting action
Compound: c1cnc2c(c1)ccc1cccnc12 [o-phenanthroline]

Compound: C=C(NC(C)=O)C(=O)O [α-acetylamino acrylic acid]
Activity (ACA acylase [3]; 50 mM substrate, 0.1 U/ml ACA acylase, pH 8.0): 0 mU.ml^-1
Relative Activity (ACA acylase [3]; relative to α-acetylamino cinnamic acid = 100%, 50 mM substrate, pH 8.0): 0%
Substrate specificity: hydrolysis by the enzyme (in words) (ACA acylase [3]; summary of properties): not

Residual Activity (ACA acylase [2]; [10]): 111%
Residual Activity (ACA acylase [2]; [11]): 102%
Compound: O=C(O)CN(CCN(CC(=O)O)CC(=O)O)CC(=O)O [EDTA]

Compound: gly-L--phe
Activity (ACA acylase [1]): 40 mU.ml^-1
Relative Activity (ACA acylase [1]): 32%

Compound: [Cl-].[Cl-].[Zn+2] [ZnCl2]
Residual Activity (ACA acylase [2]; [8]): 86%
Residual Activity (ACA acylase [2]; [9]): 34%

Compound: N[C@@H](Cc1ccccc1)C(=O)O [Phe, L-phenylalanine]
solubility in H2 O [4]: 180000 µM (≈ 29.7 mg/mL)

Compound: gly-gly-L--phe
Activity (ACA acylase [1]): 0 mU.ml^-1
Relative Activity (ACA acylase [1]): 0%

Compound: p-mercuric benzoate
Residual Activity (ACA acylase [2]; [10]): 41%
Residual Activity (ACA acylase [2]; [11]): 3%
Influence on the enzyme (in words) (ACA acylase [2]; summary of properties): inhibiting action

Compound: L--ala-L--trp
Activity (ACA acylase [1]): 66 mU.ml^-1
Relative Activity (ACA acylase [1]): 53%

Influence on the enzyme (in words) (ACA acylase [2]; addition of 1 mmole): activates
Residual Activity (ACA acylase [2]; [10]): 146%
Residual Activity (ACA acylase [2]; [11]): 123%
Compound: O[C@H](CS)[C@H](O)CS (racemic) [dithiothreitol]

Compound: CC(=O)NC(=Cc1ccccc1)C(=O)O [α-acetylamino cinnamic acid]
Km (ACA acylase [5]; pH 8.5, coupled with L-phenylalanine dehydrogenase): 3900 µM
Substrate concentration at which the optimum reaction speed is achieved (ACA acylase [5]; pH 8.5, concentration varied 1-36 mM): 16 mM
Km (ACA acylase [6]; pH 7.5): 450 µM
Km (ACA acylase [6]; pH 7.5, coupled with D-2-hydroxy-4-methylpentanoic acid dehydrogenase): 450 µM
Substrate concentration at which the optimum reaction speed is achieved (ACA acylase [6]; pH 7.5, concentration varied 0.1-18 mM): 5 mM
Activity (ACA acylase [7]; 50 mM substrate, 0.1 U/ml ACA acylase, pH 9.2): 125 mU.ml^-1
Substrate specificity: hydrolysis by the enzyme (in words) (ACA acylase [7]; summary of properties): hydrolyzes
Relative Activity (ACA acylase [7]; α-acetylamino cinnamic acid set equal to 100%, 50 mM substrate, pH 9.2): 100%

Compound: L--his-L--phe
Activity (ACA acylase [1]): 44 mU.ml^-1
Relative Activity (ACA acylase [1]): 35%

Compound: [Ca+2].[Cl-].[Cl-] [CaCl2]
Residual Activity (ACA acylase [2]; [8]): 99%
Residual Activity (ACA acylase [2]; [9]): 99%

Compound: L--phe-L--phe
Activity (ACA acylase [1]): 41 mU.ml^-1
Relative Activity (ACA acylase [1]): 33%

Compound: L--ala-L--his
Activity (ACA acylase [1]): 43 mU.ml^-1
Relative Activity (ACA acylase [1]): 34%

Compound: L--ala-L--tyr
Activity (ACA acylase [1]): 78 mU.ml^-1
Relative Activity (ACA acylase [1]): 62%

Source: US4877734A, “Microbiologically produced α-acetylamino cinnamic acid acylase, method of its production and its use” (Degussa Aktiengesellschaft and Gesellschaft fur …, priority 1986, dated 1989)
